# Structures can show the parent of a compound that is named as a salt.
# Assays:
# [1] = acid; cited from earlier work
# [2] = Dynamic vapor sorption (DVS) hygroscopicity; format: physicochemical; details: for Hygroscopicity 40% RH: Table 3, 40% RH; for Hygroscopicity 75% RH: Table 3, 75% RH; for Hygroscopicity 90% RH: Table 3, 90% RH
# Description: DVS—Measurement of Dynamic Vapor Sorption: DVS experiments have been carried out using the DVS-HT instrument (Surface Measurement Systems, London, UK). This instrument measures the uptake and loss of vapor gravimetrically using a recording ultra-microbalance with a mass resolution of ±0.1 μg. The vapor partial pressure (±1.0%) around the sample is controlled by mixing saturated and dry carrier gas streams using electronic mass flow controllers. The desired temperature is maintained at ±0.1° C. […] The sample was loaded and unloaded at 40% RH and 25° C. (typical room conditions). A moisture sorption isotherm was performed as outlined below (2 scans giving 1 complete cycle). The software uses a least squares minimization procedure together with a model of the mass relaxation, to predict an asymptotic value. The measured mass equilibration value must be within 2% of that predicted by the software before proceeding to the next % RH value. The minimum equilibration time was set to 1 hour and the maximum to 4 hours.
# [3] = for pH: pH column of water solubility table (Table 2)
# [4] = WO 01/46145 salt; cited from earlier work
# [5] = 4 week, 40° C. and 75% RH
Hygroscopicity 40% RH [2],Hygroscopicity 75% RH [2],Hygroscopicity 90% RH [2],Compound,pKa1 [1],other results
0.04%,0.08%,0.12%,"Br.CCCN1CCC(c2cccc(S(C)(=O)=O)c2)CC1 [HBr, reference compound]",–,–
0.1%,0.45%,7.3%,"CCCN1CCC(c2cccc(S(C)(=O)=O)c2)CC1 [Hydrochloride, pridopidine hydrochloride, reference compound]",–,pH [3]: 6.0; relative humidities at which non-hygroscopic [4]: below 86%; relative humidity in excess of which deliquescent [4]: > 86%
3%,40%,70%,"CCCN1CCC(c2cccc(S(C)(=O)=O)c2)CC1.CCCN1CCC(c2cccc(S(C)(=O)=O)c2)CC1.O=C(O)CCC(=O)O [Succinate (hemi), pridopidine succinate (hemi)]",–,Deliquescence during the DVS test [2]: deliquesced; DVS weight gain ([2]; 40% RH): 3%; DVS weight gain ([2]; 70% RH): 4%; DVS weight gain ([2]; 90% RH): 37%
0.1%,0.2%,17.2%,pridopidine L-malate,–,"Water solubility, Conc. ([3]; kinetic, in water, shaken 20 minutes): 76 mg/mL; pH [3]: 3.9; chemical and physical stability [5]: acceptable"

# Further lines, the compound ahead of its results:
Compound,Hygroscopicity 40% RH [2],Hygroscopicity 75% RH [2],Hygroscopicity 90% RH [2],pKa1 [1],other results
O=S(=O)(O)c1ccccc1 [Benzene sulfonic acid],–,–,–,0.70,–
O=C(O)CO [Glycolic acid],–,–,–,3.28,–
O=S(=O)(O)c1ccc2ccccc2c1 [Naphthalene 2-sulfonic acid],–,–,–,0.17,–
pridopidine tosylate,0.02%,0.1%,0.2%,–,XRPD pattern before and after the DVS test [2]: no change in XRPD pattern; DVS weight gain ([2]; 40% RH): 0.02%; DVS weight gain ([2]; 70% RH): 0.1%; DVS weight gain ([2]; 90% RH): 0.2%

# Source: US9796673B2 (TEVA PHARMACEUTICALS INTERNATIONAL GMBH, priority 2014, dated 2017)
